Data: ChEMBL document CHEMBL6134788, “Development of naphthalimide hydrazide derivatives as potent antibacterial agents against carbapenem-resistant A. baumannii” (RSC Med Chem, 2024)
Values after ≈ are worked out from the molar mass of the structure shown.

Key:
[1] = tested on: Acinetobacter baumannii; test: Antibacterial activity against multi-drug resistant Acinetobacter baumannii clinical isolate 1 assessed as inhibition of bacterial growth incubated for 16 to 18 hrs by CLSI protocol based method; type: functional; details: time 16-18 hrs, read-out: MIC100
[2] = tested on: Acinetobacter baumannii; test: Antibacterial activity against multi-drug resistant Acinetobacter baumannii clinical isolate 2 assessed as inhibition of bacterial growth incubated for 16 to 18 hrs by CLSI protocol based method; type: functional; details: time 16-18 hrs, read-out: MIC100
[3] = tested on: Acinetobacter baumannii; test: Antibacterial activity against multi-drug resistant Acinetobacter baumannii Naval-17 assessed as inhibition of bacterial growth incubated for 16 to 18 hrs by CLSI protocol based method; type: functional; details: time 16-18 hrs, read-out: MIC100
[4] = tested on: Acinetobacter baumannii; test: Antibacterial activity against multi-drug resistant Acinetobacter baumannii WL-136 assessed as inhibition of bacterial growth incubated for 16 to 18 hrs by CLSI protocol based method; type: functional; details: time 16-18 hrs, read-out: MIC100
[5] = tested on: Staphylococcus aureus; test: Antibacterial activity against Staphylococcus aureus ATCC 29213 assessed as inhibition of bacterial growth incubated for 16 to 18 hrs by CLSI protocol based method; type: functional; details: time 16-18 hrs, read-out: MIC100
[6] = tested on: Acinetobacter baumannii; test: Antibacterial activity against multi-drug resistant Acinetobacter baumannii Naval-18 assessed as inhibition of bacterial growth incubated for 16 to 18 hrs by CLSI protocol based method; type: functional; details: time 16-18 hrs, read-out: MIC100
[7] = tested on: Acinetobacter baumannii; test: Antibacterial activity against multi-drug resistant Acinetobacter baumannii WL-487 assessed as inhibition of bacterial growth incubated for 16 to 18 hrs by CLSI protocol based method; type: functional; details: time 16-18 hrs, read-out: MIC100
[8] = tested on: Acinetobacter baumannii; test: Antibacterial activity against Acinetobacter baumannii ATCC 17978 assessed as inhibition of bacterial growth incubated for 16 to 18 hrs by CLSI protocol based method; type: functional; details: time 16-18 hrs, read-out: MIC100
[9] = tested on: Acinetobacter baumannii; test: Antibacterial activity against multi-drug resistant Acinetobacter baumannii clinical isolate 11 assessed as inhibition of bacterial growth incubated for 16 to 18 hrs by CLSI protocol based method; type: functional; details: time 16-18 hrs, read-out: MIC100
[10] = Cytotoxicity against African green monkey Vero cells assessed as reduction in cell viability incubated for 72 hrs by MTT assay; type: toxicity, cell-based; details: chlorocebus sabaeus
[11] = tested on: Acinetobacter baumannii; test: Antibacterial activity against multi-drug resistant Acinetobacter baumannii clinical isolate 10 assessed as inhibition of bacterial growth incubated for 16 to 18 hrs by CLSI protocol based method; type: functional; details: time 16-18 hrs, read-out: MIC100
[12] = tested on: Acinetobacter baumannii; test: Antibacterial activity against carbapenem-resistant Acinetobacter baumannii BAA 1605 assessed as inhibition of bacterial growth incubated for 16 to 18 hrs by CLSI protocol based method; type: functional; details: time 16-18 hrs, read-out: MIC100
[13] = tested on: Acinetobacter baumannii; test: Antibacterial activity against multi-drug resistant Acinetobacter baumannii clinical isolate 8 assessed as inhibition of bacterial growth incubated for 16 to 18 hrs by CLSI protocol based method; type: functional; details: time 16-18 hrs, read-out: MIC100
[14] = tested on: Acinetobacter baumannii; test: Antibacterial activity against multi-drug resistant Acinetobacter baumannii clinical isolate 6 assessed as inhibition of bacterial growth incubated for 16 to 18 hrs by CLSI protocol based method; type: functional; details: time 16-18 hrs, read-out: MIC100
[15] = tested on: Acinetobacter baumannii; test: Antibacterial activity against multi-drug resistant Acinetobacter baumannii clinical isolate 3 assessed as inhibition of bacterial growth incubated for 16 to 18 hrs by CLSI protocol based method; type: functional; details: time 16-18 hrs, read-out: MIC100
[16] = tested on: Acinetobacter baumannii; test: Antibacterial activity against multi-drug resistant Acinetobacter baumannii clinical isolate 4 assessed as inhibition of bacterial growth incubated for 16 to 18 hrs by CLSI protocol based method; type: functional; details: time 16-18 hrs, read-out: MIC100
[17] = tested on: Acinetobacter baumannii; test: Antibacterial activity against multi-drug resistant Acinetobacter baumannii clinical isolate 12 assessed as inhibition of bacterial growth incubated for 16 to 18 hrs by CLSI protocol based method; type: functional; details: time 16-18 hrs, read-out: MIC100
[18] = tested on: Acinetobacter baumannii; test: Antibacterial activity against multi-drug resistant Acinetobacter baumannii clinical isolate 9 assessed as inhibition of bacterial growth incubated for 16 to 18 hrs by CLSI protocol based method; type: functional; details: time 16-18 hrs, read-out: MIC100
[19] = tested on: Acinetobacter baumannii; test: Antibacterial activity against multi-drug resistant Acinetobacter baumannii 5-143 assessed as inhibition of bacterial growth incubated for 16 to 18 hrs by CLSI protocol based method; type: functional; details: time 16-18 hrs, read-out: MIC100
[20] = tested on: Acinetobacter baumannii; test: Antibacterial activity against multi-drug resistant Acinetobacter baumannii 5-032 assessed as inhibition of bacterial growth incubated for 16 to 18 hrs by CLSI protocol based method; type: functional; details: time 16-18 hrs, read-out: MIC100
[21] = tested on: Acinetobacter baumannii; test: Antibacterial activity against Acinetobacter baumannii assessed as inhibition of bacterial growth by twofold serial dilution method; type: functional
[22] = tested on: Acinetobacter baumannii; test: Antibacterial activity against multi-drug resistant Acinetobacter baumannii clinical isolate 7 assessed as inhibition of bacterial growth incubated for 16 to 18 hrs by CLSI protocol based method; type: functional; details: time 16-18 hrs, read-out: MIC100
[23] = tested on: Acinetobacter baumannii; test: Antibacterial activity against multi-drug resistant Acinetobacter baumannii clinical isolate 5 assessed as inhibition of bacterial growth incubated for 16 to 18 hrs by CLSI protocol based method; type: functional; details: time 16-18 hrs, read-out: MIC100
[24] = tested on: Acinetobacter baumannii; test: Antibacterial activity against multi-drug resistant Acinetobacter baumannii NR-17777 assessed as inhibition of bacterial growth incubated for 16 to 18 hrs by CLSI protocol based method; type: functional; details: time 16-18 hrs, read-out: MIC100
[25] = tested on: Acinetobacter baumannii; test: Antibacterial activity against multi-drug resistant Acinetobacter baumannii H72721 assessed as inhibition of bacterial growth incubated for 16 to 18 hrs by CLSI protocol based method; type: functional; details: time 16-18 hrs, read-out: MIC100
[26] = tested on: Acinetobacter baumannii; test: Antibacterial activity against multi-drug resistant Acinetobacter baumannii Naval-81 assessed as inhibition of bacterial growth incubated for 16 to 18 hrs by CLSI protocol based method; type: functional; details: time 16-18 hrs, read-out: MIC100
[27] = tested on: Acinetobacter baumannii; test: Antibacterial activity against multi-drug resistant Acinetobacter baumannii 5-109 assessed as inhibition of bacterial growth incubated for 16 to 18 hrs by CLSI protocol based method; type: functional; details: time 16-18 hrs, read-out: MIC100
[28] = tested on: Acinetobacter baumannii; test: Antibacterial activity against multi-drug resistant Acinetobacter baumannii BC-5 assessed as inhibition of bacterial growth incubated for 16 to 18 hrs by CLSI protocol based method; type: functional; details: time 16-18 hrs, read-out: MIC100
[29] = tested on: Acinetobacter baumannii; test: Antibacterial activity against multi-drug resistant Acinetobacter baumannii 5-189 assessed as inhibition of bacterial growth incubated for 16 to 18 hrs by CLSI protocol based method; type: functional; details: time 16-18 hrs, read-out: MIC100

## C[C@H]1COc2c(N3CCN(C)CC3)c(F)cc3c(=O)c(C(=O)O)cn1c23 [LEVOFLOXACIN ANHYDROUS]
[1]
  MIC: 32 µg/mL (≈ 88.6 µM)
[2]
  MIC: > 64 µg/mL
[3]
  MIC: 16 µg/mL (≈ 44.3 µM)
[4]
  MIC: 0.25 µg/mL (≈ 0.692 µM)
[5]
  MIC: 0.25 µg/mL (≈ 0.692 µM)
[6]
  MIC: 4 µg/mL (≈ 11.1 µM)
[7]
  MIC: 0.125 µg/mL (≈ 0.346 µM)
[8]
  MIC: 0.03 µg/mL (≈ 0.083 µM)
[9]
  MIC: 64 µg/mL (≈ 177 µM)
[10]
  CC50 at 72 h: > 400 µg/mL
[11]
  MIC: > 64 µg/mL
[12]
  MIC: 4 µg/mL (≈ 11.1 µM)
[13]
  MIC: 4 µg/mL (≈ 11.1 µM)
[14]
  MIC: 4 µg/mL (≈ 11.1 µM)
[15]
  MIC: 64 µg/mL (≈ 177 µM)
[16]
  MIC: > 64 µg/mL
[17]
  MIC: 4 µg/mL (≈ 11.1 µM)
[18]
  MIC: 4 µg/mL (≈ 11.1 µM)
[19]
  MIC: 1 µg/mL (≈ 2.77 µM)
[20]
  MIC: 0.25 µg/mL (≈ 0.692 µM)

## CCCCCCCCCCN1CCN(c2ccc3c4c(cccc24)C(=O)N(CC(O)Cn2c([N+](=O)[O-])cnc2C)C3=O)CC1 (configuration not stated)
[21]
  MIC: 13 µM (≈ 7.86 µg/mL)

## C[C@@H](O)[C@H]1C(=O)N2C(C(=O)O)=C(S[C@@H]3CN[C@H](C(=O)N(C)C)C3)[C@H](C)[C@H]12 [MEROPENEM]
[22]
  MIC: 2 µg/mL (≈ 5.22 µM)
[1]
  MIC: 16 µg/mL (≈ 41.7 µM)
[2]
  MIC: 32 µg/mL (≈ 83.4 µM)
[3]
  MIC: 4 µg/mL (≈ 10.4 µM)
[4]
  MIC: 2 µg/mL (≈ 5.22 µM)
[6]
  MIC: 64 µg/mL (≈ 167 µM)
[7]
  MIC: 1 µg/mL (≈ 2.61 µM)
[23]
  MIC: > 64 µg/mL
[8]
  MIC: 0.5 µg/mL (≈ 1.3 µM)
[9]
  MIC: 64 µg/mL (≈ 167 µM)
[11]
  MIC: 16 µg/mL (≈ 41.7 µM)
[24]
  MIC: 4 µg/mL (≈ 10.4 µM)
[25]
  MIC: 32 µg/mL (≈ 83.4 µM)
[26]
  MIC: 4 µg/mL (≈ 10.4 µM)
[12]
  MIC: 16 µg/mL (≈ 41.7 µM)
[13]
  MIC: 64 µg/mL (≈ 167 µM)
[14]
  MIC: > 64 µg/mL
[15]
  MIC: 16 µg/mL (≈ 41.7 µM)
[16]
  MIC: 32 µg/mL (≈ 83.4 µM)
[27]
  MIC: 4 µg/mL (≈ 10.4 µM)
[17]
  MIC: > 64 µg/mL
[18]
  MIC: > 64 µg/mL
[28]
  MIC: > 64 µg/mL
[19]
  MIC: 8 µg/mL (≈ 20.9 µM)
[29]
  MIC: 2 µg/mL (≈ 5.22 µM)
[20]
  MIC: 4 µg/mL (≈ 10.4 µM)
